Reference: PubChem BioAssay AID1918940 (Molecular Pharmacology Branch, DTP, NCI, 2023)

Tested on: NCI-H211 complex spheroid viability
Assay: Anticancer human tumor NCI-H211 cell line growth inhibition [LSD1];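 further: luminescent viability read after seven days of drug exposure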;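 on viability, T/C: 100% = DMSO vehicle control viability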
Conditions: for IC50: curve of first compound; for viability, T/C: stronger effect = lower value
Source text: Multicellular complex tumor spheroid response to LSD1 Inhibitor Iadademstat in combination with a variety of drugs and investigational agents in selected tumor cell lines
The current study was undertaken to assess response to LSD1 inhibitors in combination with standard-of-care drugs and investigational agents in solid tumor complex spheroid models as well as in the K-562 leukemia. Complex spheroids include a stromal component modeled by human endothelial cells (HUVEC) and fibroblasts modeled by human mesenchymal stem cells (MSCs). The concentration ranges selected for each drug and investigational agent were based upon clinically achievable concentrations if the clinical Cmax of the agent was known.
Compounds. The drugs and investigational agents used in this study are listed on Table 1. All of the agents used, including staurosporine (NSC755774) and gemcitabine (NSC613327), were obtained from the Developmental Therapeutics Program, NCI. FDA-approved anticancer drugs are available from the NCI at http://dtp.nci.nih.gov/branches/dscb/oncology_drugset_explanation.html. Drugs and investigational agents were >95% pure by proton nuclear magnetic resonance (NMR) and liquid chromatography/mass spectrometry (LC/MS). Stock solutions were prepared at 400x in DMSO, stored at -70 degrees C, and diluted in fresh medium prior to their use. The final concentration of DMSO in cell culture wells never exceeded 0.25% (v/v). The FDA-approved anticancer drug set is available from the Developmental Therapeutics Program at https://dtp.cancer.gov/organization/dscb/obtaining/available_plates.htm. All drugs and investigational agents were tested over a range starting from a high concentration at or near the clinical Cmax and decreasing in half-log increments. If the clinical Cmax for an agent had not been determined, the highest concentration tested was 10 microM.
Cell Lines. The patient-derived cancer cell (PDC) lines: 292921-168-R-J2-PDC, K24384-001-R-PDC, and 521955-158-R2-J5-PDC pancreatic carcinomas, 556581-035-R-J1 ovarian carcinoma, 324938-238-R-J1-PDC, 855422-203-R-J1-PDC and 883617-216-R-J1-PDC urothelial bladder carcinomas, 743489-274-T-PDC renal cell carcinoma, 138582-R-J1 Merkel cell tumor, K60290-347-R-J1 and K57222-313-R-J1-PDC glioblastomas, 653999-131-R-J2-PDC, LG0703-F948-PDC, and 349418-098-R-PDC non-small cell lung carcinomas, 885512-296-R-J2-PDC, 171881-019-R-J1-PDC breast carcinomas and 186277-243-T-J2-PDC and 233499-124-R-J2-PDC colon carcinomas were obtained from the NCI Patient-Derived Models Repository (PDMR, https://pdmr.cancer.gov). The established cell lines NCI/ADR-RES (RRID:CVCL_14520 and OVCAR-5 (RRID:CVCL_1628) ovarian carcinomas, 786-O (RRID:CVCL_1051) and A498 (RRID:CVCL_A498) renal cell carcinoma, NCI-H211 (ATCC, cat. CRL-5824; RRID:CVCL_1529), NCI-H196 (ATCC, cat. CRL-5823, RRID:CVCL_1509), SW 1271 (ATCC, cat. CRL-2177, RRID:CVCL_1716) and NCI-H1876 (ATCC, cat. CRL-5902, RRID:CVCL_1503) small cell lung carcinomas, MDA-MB-231 (RRID:CVCL_0062) and MDA-MB-468 (RRID:CVCL_0419)breast carcinomas (10-12). Pooled donor human umbilical vein endothelial cells (HUVEC, Lonza, cat. CC-2519) and human mesenchymal stem cells (hMSC, Lonza, cat. PT-2501) were purchased from Lonza (Walkersville, MD).
Cell Culture. All cells were maintained in an incubator at 37 degrees C and 5% CO2 with 95% humidity. The PDC lines were cultured according to standard operating procedures established by the NCI PDMR (https://pdmr.cancer.gov). Briefly all PDCs were thawed and cultured in Matrigel-coated flasks prepared with a working solution of 1X Ham's F-12 nutrient mix, without supplementation (Invitrogen, Waltham, MA, cat. 11765054), 100 U/mL penicillin-streptomycin (Invitrogen, cat. 15140122), and 2.5% Matrigel (Corning Inc., Corning, NY, cat. 354248) for the first three passages. […]

In the case of `O=C(C=Cn1cnc(-c2cc(C(F)(F)F)cc(C(F)(F)F)c2)n1)NNc1cnccn1` + NC1CC1c1ccc(-c2cccc(O)c2)cc1, the IC50 (second compound 0.1 µM) is reported as < 3.16 nM, the IC50 (second compound 0.316 µM) is reported as < 3.16 nM and the IC50 (second compound 1 µM) is reported as < 3.16 nM. The IC50 (second compound 3.16 µM) was < 3.16 nM, the IC50 (second compound 10 µM) was < 3.16 nM and the viability, T/C (second compound 0.1 µM, first compound 0.00316 µM) was 45.6%. The viability, T/C (second compound 0.1 µM, first compound 0.01 µM) was 35.5%, the viability, T/C (second compound 0.1 µM, first compound 0.0316 µM) was 16.3% and the viability, T/C (second compound 0.1 µM, first compound 0.1 µM) was 6.54%. It also gave a viability, T/C (second compound 0.1 µM, first compound 0.316 µM) of 2.54%, a viability, T/C (second compound 0.1 µM, first compound 1 µM) of 2.3% and a viability, T/C (second compound 0.316 µM, first compound 0.00316 µM) of 29.8%. For the same compound, the viability, T/C (second compound 0.316 µM, first compound 0.01 µM) was 29%, the viability, T/C (second compound 0.316 µM, first compound 0.0316 µM) was 14.4% and the viability, T/C (second compound 0.316 µM, first compound 0.1 µM) was 6.98%. The viability, T/C (second compound 0.316 µM, first compound 0.316 µM) was 2.61%, the viability, T/C (second compound 0.316 µM, first compound 1 µM) was 2.22% and the viability, T/C (second compound 1 µM, first compound 0.00316 µM) was 38.4%. It also gave a viability, T/C (second compound 1 µM, first compound 0.01 µM) of 32.6%, a viability, T/C (second compound 1 µM, first compound 0.0316 µM) of 12.8% and a viability, T/C (second compound 1 µM, first compound 0.1 µM) of 6.89%. It also gave a viability, T/C (second compound 1 µM, first compound 0.316 µM) of 3.1%, a viability, T/C (second compound 1 µM, first compound 1 µM) of 2.61% and a viability, T/C (second compound 3.16 µM, first compound 0.00316 µM) of 47.7%. For the same compound, the viability, T/C (second compound 3.16 µM, first compound 0.01 µM) was 29.5%, the viability, T/C (second compound 3.16 µM, first compound 0.0316 µM) was 16.6% and the viability, T/C (second compound 3.16 µM, first compound 0.1 µM) was 7.35%. For the same compound, the viability, T/C (second compound 3.16 µM, first compound 0.316 µM) was 3.74%, the viability, T/C (second compound 3.16 µM, first compound 1 µM) was 2.99% and the viability, T/C (second compound 10 µM, first compound 0.00316 µM) was 40.6%. It also gave a viability, T/C (second compound 10 µM, first compound 0.01 µM) of 28.6%, a viability, T/C (second compound 10 µM, first compound 0.0316 µM) of 17.8% and a viability, T/C (second compound 10 µM, first compound 0.1 µM) of 9.12%. It also gave a viability, T/C (second compound 10 µM, first compound 0.316 µM) of 3.24% and a viability, T/C (second compound 10 µM, first compound 1 µM) of 3.79%.

Compound `Nc1ccccc1NC(=O)c1ccc(CNC(=O)OCc2cccnc2)cc1` + NC1CCC(NC2CC2c2ccccc2)CC1 has an IC50 (second compound 0.1 µM) of 11.9 nM, an IC50 (second compound 0.316 µM) of 13.2 nM and an IC50 (second compound 1 µM) of 9.95 nM. For the same compound, the IC50 (second compound 3.16 µM) was < 9.49 nM, the IC50 (second compound 10 µM) was < 9.49 nM and the viability, T/C (second compound 0.1 µM, first compound 0.00949 µM) was 54.5%. The viability, T/C (second compound 0.1 µM, first compound 0.03 µM) was 32.1%, the viability, T/C (second compound 0.1 µM, first compound 0.0949 µM) was 4.58% and the viability, T/C (second compound 0.1 µM, first compound 0.3 µM) was 1.24%. It also gave a viability, T/C (second compound 0.1 µM, first compound 0.949 µM) of 0.63%, a viability, T/C (second compound 0.1 µM, first compound 3 µM) of 0.12% and a viability, T/C (second compound 0.316 µM, first compound 0.00949 µM) of 55.7%. It also gave a viability, T/C (second compound 0.316 µM, first compound 0.03 µM) of 35.9%, a viability, T/C (second compound 0.316 µM, first compound 0.0949 µM) of 4.66% and a viability, T/C (second compound 0.316 µM, first compound 0.3 µM) of 1.07%. For the same compound, the viability, T/C (second compound 0.316 µM, first compound 0.949 µM) was 0.8%, the viability, T/C (second compound 0.316 µM, first compound 3 µM) was 0.15% and the viability, T/C (second compound 1 µM, first compound 0.00949 µM) was 51%. For the same compound, the viability, T/C (second compound 1 µM, first compound 0.03 µM) was 27.2%, the viability, T/C (second compound 1 µM, first compound 0.0949 µM) was 3.65% and the viability, T/C (second compound 1 µM, first compound 0.3 µM) was 0.99%. For the same compound, the viability, T/C (second compound 1 µM, first compound 0.949 µM) was 0.68%, the viability, T/C (second compound 1 µM, first compound 3 µM) was 0.11% and the viability, T/C (second compound 3.16 µM, first compound 0.00949 µM) was 38%. For the same compound, the viability, T/C (second compound 3.16 µM, first compound 0.03 µM) was 20.3%, the viability, T/C (second compound 3.16 µM, first compound 0.0949 µM) was 3.37% and the viability, T/C (second compound 3.16 µM, first compound 0.3 µM) was 0.53%. The viability, T/C (second compound 3.16 µM, first compound 0.949 µM) was 0.39%, the viability, T/C (second compound 3.16 µM, first compound 3 µM) was 0.12% and the viability, T/C (second compound 10 µM, first compound 0.00949 µM) was 29.4%. The viability, T/C (second compound 10 µM, first compound 0.03 µM) was 6.92%, the viability, T/C (second compound 10 µM, first compound 0.0949 µM) was 1% and the viability, T/C (second compound 10 µM, first compound 0.3 µM) was 0.3%. The viability, T/C (second compound 10 µM, first compound 0.949 µM) was 0.22% and the viability, T/C (second compound 10 µM, first compound 3 µM) was 5.88%.
